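Protocol summary: plate cells (96-well), add compound at 5 concentrations, incubate 48 h, interpolate endpoints linearly. TGI marks complete inhibition of growth.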
Key:
Test in all cases: NCI anticancer screen, dose series, 48 h
DMS 273 small cell lung = tested on: DMS 273 small cell lung
HOP-62 NSCLC = tested on: HOP-62 NSCLC
NCI-H23 lung = tested on: NCI-H23 lung
NCI-H460 lung = tested on: NCI-H460 lung
OVCAR-5 ovarian = tested on: OVCAR-5 ovarian
SNB-78 CNS = tested on: SNB-78 CNS
UACC-257 melanoma = tested on: UACC-257 melanoma
XF 498 CNS = tested on: XF 498 CNS
DLD-1 colon = tested on: DLD-1 colon
M19-MEL melanoma = tested on: M19-MEL melanoma
SF-539 CNS = tested on: SF-539 CNS
SK-OV-3 ovarian = tested on: SK-OV-3 ovarian
SR leukemia = tested on: SR leukemia

Compound	TGI (DMS 273 small cell lung) [µM]	TGI (HOP-62 NSCLC) [µM]	TGI (NCI-H23 lung) [µM]	TGI (NCI-H460 lung) [µM]	TGI (OVCAR-5 ovarian) [µM]	TGI (SNB-78 CNS) [µM]	TGI (UACC-257 melanoma) [µM]	TGI (XF 498 CNS) [µM]	TGI (DLD-1 colon) [µM]	TGI (M19-MEL melanoma) [µM]	TGI (SF-539 CNS) [µM]	TGI (SK-OV-3 ovarian) [µM]	TGI (SR leukemia) [µM]
CC1=C(Cl)C=CP(=O)(Oc2ccccc2)C1 (stereo not drawn)	75.9	> 100	> 100	> 100	> 100	> 100	> 100	> 100	–	–	–	–	–
Cc1ccc(NC(=O)CC2Sc3ccccc3NC2=O)cc1C (stereo not drawn)	> 100	> 100	> 100	> 100	> 100	> 100	> 100	> 100	> 100	> 100	> 100	> 100	> 100
COc1ccc2cc1Oc1ccc(cc1)C[C@H]1c3cc(c(OC)cc3CCN1C)Oc1c(O)c(OC)cc3c1[C@H](C2)N(C)CC3	40.1	65.7	95.5	45.2	99.6	117	30.1	49.4	53.7	43.4	41.6	44.5	–
COC(=O)C1=C(C(=O)OC)SC(=C2SCSC3=C2SC(C(=O)OC)=C(C(=O)OC)C32SC3=C(CCCC3)S2)S1	–	> 100	> 100	> 100	> 100	–	> 100	–	–	–	> 100	> 100	> 100
COc1cc(S(=O)(=O)Nc2nc(-c3ccc(N4C(=O)C(CC(=O)O)SC4c4cccs4)cc3)cs2)ccc1Cl (stereo not drawn)	–	> 100	49	> 100	> 100	–	> 100	–	–	–	> 100	> 100	79.1
CC1(C)O[C@H]2OC(CO[Si](C)(C)C(C)(C)C)C(N=[N+]=[N-])[C@H]2O1 (stereo partly drawn)	–	34.1	39	43.7	35.2	–	35.5	–	–	–	36	28.3	32.2
Cc1oc2c(cc(O)c3cc(O)ccc32)c2cccc1-2	–	> 100	> 100	> 100	> 100	–	> 100	–	–	–	> 100	> 100	> 100
C/C(=C\CBr)CCC(Br)C(C)(C)Br (stereo not drawn)	–	> 100	> 100	> 100	> 100	–	> 100	–	–	–	> 100	> 100	> 100
COC(=O)c1c(C)nc2c1cc(O)c1[nH]c(C)c(C)nc12	–	71.7	> 100	> 100	> 100	–	> 100	–	–	–	> 100	> 100	> 100
CCC(=O)NC(Nc1cc(C)on1)(C(F)(F)F)C(F)(F)F	–	> 100	> 100	> 100	> 100	–	> 100	–	–	–	> 100	> 100	> 100
COc1ccc(/C=c2\sc3n(c2=O)CCN=3)cc1	–	> 100	> 100	> 100	> 100	> 100	> 100	–	> 100	> 100	> 100	> 100	> 100
Cc1ccnc(NS(=O)(=O)c2ccc(N=[N+]=[N-])cc2)n1	–	> 100	> 100	> 100	> 100	–	> 100	–	–	–	> 100	> 100	> 100
Nc1nc(SCCC/C=C/I)nc2c1ncn2C1OC(COP(=O)(O)O)C(O)C1O (stereo not drawn)	> 100	> 100	> 100	> 100	> 100	> 100	> 100	> 100	> 100	> 100	> 100	> 100	> 100
COC(=O)[C@@H](O)[C@](O)(CCC(C)C)C(=O)O[C@@H]1C(OC)=C[C@]23CCCN2CCc2cc4c(cc2[C@H]13)OCO4	3.47	4.75	5.7	1.7	15.2	10.9	6.06	–	> 19.7	4.16	3.16	8.12	–
CCCCCCCC/C=C\CCCCCCCCCCCC(=O)O	48.7	63.6	80.8	34.9	> 125	> 115	> 125	2.82	> 125	97.2	40.4	> 125	–
O=[N+]([O-])c1ccc2[nH]nc(OCc3ccccc3Cl)c2c1	–	> 100	> 100	> 100	> 100	–	> 100	–	–	–	50.9	31.9	> 100
CC(=O)N1C(C(=O)NC2CCCCC2)CSC1c1ccccc1 (stereo not drawn)	–	> 100	> 100	> 100	> 100	–	> 100	–	–	–	> 100	> 100	> 100
NC1(c2cc3ccccc3s2)CCCC1	–	> 100	> 100	> 100	> 100	–	81.2	–	–	–	45.3	> 100	44.2
N#C/C(=C1/Sc2c(nc[nH]c2=O)N1c1ccccc1)c1nc2ccccc2[nH]1	> 100	> 100	> 100	> 100	> 100	> 100	> 100	> 100	> 100	> 100	> 100	> 100	> 100
Cc1ccccc1C(=N)c1ccccc1Cc1cccc2ccccc12	–	43.5	> 100	38.6	> 100	–	> 100	–	–	–	35.4	98.9	41.2
CCOC(=O)N1CCN(Cc2cc(=O)n3ccc(C)cc3n2)CC1	–	> 100	> 100	> 100	> 100	–	> 100	–	–	–	> 100	> 100	> 100
O=C(/C=C/c1ccccc1)C[C@@H](O)C[C@@H]1CC=CC(=O)O1	–	33.7	28.6	39.5	36.4	–	31.1	–	–	–	14.9	38.7	11.5
CCCCCC1=CC(=O)C1(Cl)Cl	–	48.8	49.7	> 61.2	29.5	–	33.3	–	–	–	38.9	85.4	19.4
COc1ccc(-c2[nH]c3c4c(nc5c(c24)C(=O)CC(C)(C)C5)CC(C)(C)C3)cc1	–	> 100	> 100	> 100	> 100	–	> 100	–	–	–	> 100	> 100	92.1
Nc1c(S(=O)(=O)O)cc2cc(S(=O)(=O)O)ccc2c1N=Nc1ccc(-c2ccc(N=Nc3c(N)c(S(=O)(=O)O)cc4cc(S(=O)(=O)O)ccc34)c(S(=O)(=O)O)c2)cc1	> 100	> 100	> 100	> 31.6	> 100	> 100	> 100	> 100	> 100	> 100	> 100	> 100	–

— PubChem BioAssay (NCI)
